The values that follow come from patent US8906925B2, “Pyrido[4,3-B]indoles containing rigid moieties” (Medivation Technologies, Inc., priority 2008, dated 2014).

Like-named read-outs stand apart in the source and are kept apart here.

Assay [1] concerns the target T1, rat adrenergic α1A receptor (Rattus norvegicus, UniProt P43140).
T1 construct: from tissue; host or cells: Wistar rat submaxillary glands
T1 sequence (P43140 1-466): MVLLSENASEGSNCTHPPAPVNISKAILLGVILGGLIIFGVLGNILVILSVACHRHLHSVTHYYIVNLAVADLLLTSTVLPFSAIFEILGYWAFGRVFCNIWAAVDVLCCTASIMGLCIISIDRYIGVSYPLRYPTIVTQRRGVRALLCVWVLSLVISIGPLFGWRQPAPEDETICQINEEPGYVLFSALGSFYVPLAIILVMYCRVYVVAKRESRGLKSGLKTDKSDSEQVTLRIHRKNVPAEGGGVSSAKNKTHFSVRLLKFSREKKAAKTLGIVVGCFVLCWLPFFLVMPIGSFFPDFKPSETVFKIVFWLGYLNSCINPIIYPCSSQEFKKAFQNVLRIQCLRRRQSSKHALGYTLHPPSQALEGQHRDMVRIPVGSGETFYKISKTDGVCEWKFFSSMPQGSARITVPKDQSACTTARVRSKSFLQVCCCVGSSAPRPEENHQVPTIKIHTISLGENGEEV
The assay can be described thus: Adrenergic α1A radioligand binding ([3H]Prozosin). Particulars: compound at 1 μM. As for the experimental part:
To evaluate in radioligand binding assays the activity of compounds of the invention, rat adrenergic α1A receptor obtained from Wistar Rat submaxillary glands (Michel, A. D. et al., Br. J. Pharmacol. 98:883, 1989) in a modified Tris-HCl buffer (50 mM Tris-HCl buffer, pH 7.4, 0.5 mM EDTA) was used. Compounds of the invention were incubated with 0.25 nM [^3H]Prozosin for 60 min. at 25° C. Non-specific binding was estimated in the presence of 10 μM phentolamine. Receptor proteins were filtered and washed, the filters were then counted to determine [^3H]Prozosin specifically bound. Compounds of the invention were screened at 1 μM or lower, using 1% DMSO as vehicle. Compounds of the invention were tested in this biochemical assay and percent inhibition of specific binding was determined.

The test system of assay [2] is male Wistar rat. Put plainly: Conditioned avoidance response (CAR) model. Particulars: 0.1, 0.3, 1, 3, 10 and 20 mg/kg, p.o. Format: in vivo. As for the experimental part: All currently approved antipsychotic agents (typical and atypical) are known to have the ability to selectively suppress conditioned avoidance response (CAR) behavior in the rat. This evidence makes CAR one of the primary tests to assess antipsychotic activity of novel compounds.
The effects of Compound Nos. 83, 88 and 90, at concentrations including 0.1, 0.3, 1, 3, 10 and 20 mg/kg, p.o., in the conditioned avoidance response model were assessed in the male Wistar rat. Risperidone (0.3 mg/kg, s.c.) was used in the present study as a positive reference compound.
For each testing session, animals were first placed for a 4-min. habituation period in a shuttlebox with an electrified grid floor. Then, rats were submitted to 30 trials spaced by intertribal intervals varying at random between 20 and 30 sec. Each trial consisted of a 10-sec. light stimulus (conditioned stimulus, CS) followed by a 10-sec. electric foot shock (unconditioned stimulus, US) in presence of the light presented in the compartment where the rat is located. If the animal moved to the other compartment during the initial 10-sec. of the trial, the light was terminated (no shock was delivered) and the response was recorded as an avoidance response. If the rat changed compartment during the foot shock, the light and the shock were terminated and the response was recorded as an unconditioned response. […] If a response was made during an intertrial interval, the response was recorded as an intertrial crossing. Training was performed 5 days per week with one session of 30 trials per day, until rats reached the performance criterion of 80% of avoidance response on at least two consecutive daily sessions. […] A minimal wash-out period of 48 hours was allowed between 2 treatments. During the wash-out period, animals were trained until they recovered an avoidance performance of at least 80%.
Statistical analysis was performed using a Friedman two-way ANOVA by ranks followed by the Wilcoxon matched-pairs signed-ranks test to test each dose of the test compound administered versus vehicle control treated rats.

Setting [3] is: percent inhibition of specific binding, read-out: Inhibition of ligand binding, Adrenergic α1A.

Consider `Cc1ccc(C(O)Cn2c3c(c4cc(C)ccc42)CN(C)CC3)cc1` (racemic) [Compound 43, racemic-2-(1,2,3,4-tetrahydro-2,8-dimethylpyrido[4,3-b]indol-5-yl)-1-p-tolylethanol], for which the “Inhibition of ligand binding, Adrenergic α1A” value in assay [1] (percent inhibition of specific binding, 1 µM) was found to be 96%. Also, the inhibition at 1 µM in assay [1] (setting [3]) was 90%. On to `Cc1ccc2c(c1)c1c(n2CC#Cc2ccccn2)CCN(C)C1` [Compound No. 500, 2,3,4,5-tetrahydro-2,8-dimethyl-5-(3-(pyridin-2-yl)prop-2-ynyl)-1H-pyrido[4,3-b]indole], for which the inhibition at 1 µM in assay [1] (read-out: Inhibition of ligand binding, Adrenergic α1A (percent inhibition of specific binding)) was found to be 27%. Turning to `C/C(=C\n1c2c(c3cc(Cl)ccc31)CN(C)CC2)c1ccncc1` [Compound 90, (E)-8-chloro-2,3,4,5-tetrahydro-2-methyl-5-(2-(pyridin-4-yl)prop-1-enyl)-1H-pyrido[4,3-b]indole], the “number of avoidance responses versus pretreatment, compared to vehicle” value in assay [2] is “significantly and dose-dependently decreased”. Regarding `CCN1CCc2c(c3ccccc3n2CC(O)c2ccc(C)cc2)C1` (racemic) [Compound 44, racemic-2-(2-ethyl-1,2,3,4-tetrahydropyrido[4,3-b]indol-5-yl)-1-p-tolylethanol], the inhibition at 1 µM in assay [1] (setting [3]) was 39%. On to `C/C(=C\n1c2c(c3cc(Cl)ccc31)CN(C)CC2)c1ccc(F)cc1` [Compound 83, (E)-8-chloro-5-(2-(4-fluorophenyl)prop-1-enyl)-2,3,4,5-tetrahydro-2-methyl-1H-pyrido[4,3-b]indole], for which the “number of avoidance responses versus pretreatment, compared to vehicle” value in assay [2] was “significantly and dose-dependently decreased”. Besides, the inhibition at 1 µM in assay [1] (setting [3]) amounted to 90%.

For `Cc1ccc(C(O)Cn2c3c(c4ccccc42)CN(C)CC3)cc1` (racemic) [Compound 53, racemic-2-(1,2,3,4-tetrahydro-2-methylpyrido[4,3-b]indol-5-yl)-1-p-tolylethanol], in assay [1] (setting [3]), the inhibition at 1 µM is 74%. For the compound `CCN1CCc2c(c3cc(C)ccc3n2CC(O)c2ccc(C)cc2)C1` (racemic) [Compound 51, racemic-2-(2-ethyl-1,2,3,4-tetrahydro-8-methylpyrido[4,3-b]indol-5-yl)-1-p-tolylethanol], the inhibition at 1 µM in assay [1] (setting [3]) worked out at 86%. For the compound `C/C(=C\n1c2c(c3cc(C)ccc31)CN(C)CC2)c1ccncc1` [Compound 88, (E)-2,3,4,5-tetrahydro-2,8-dimethyl-5-(2-(pyridin-4-yl)prop-1-enyl)-1H-pyrido[4,3-b]indole], in assay [2], the “number of avoidance responses versus pretreatment, compared to vehicle” value was “significantly and dose-dependently decreased”.

A word on the inhibition: it is the relative decrease from the control value, in per cent.
